Results: EP1923473B1, “Bis-diglycolamides (BISDGA) as new extractants for lanthanides [Ln(III)] and actinides [An(III)] from aqueous high-level wastes” (Universidad Autónoma de Madrid, priority 2006, dated 2008)

What was measured:
Assay type in all cases: physicochemical
[1] = Extraction capability from aqueous 3 mol/L nitric acid; details: 0.1 mol/L in TPH/1-octanol (50:50)%vol; aqueous [HNO3] 3 mol/L spiked with 152Eu(III) and 241Am(III)
Description: The organic solutions of the extractant compounds to be tested were prepared dissolving an amount of the extractant compound in the solvent considered in each case to reach the ligand concentration of 0.1 mol/L. The solvents considered were 1-octanol, n-heptane, n-dodecane, the industrial solvent "TPH" (hydrogenated tetrapropylene) used in the "La Hague" reprocessing plant of the COGEMA company (Compagnie générale des matières nucléaires) and different mixtures "TPH/1-octanol or n-dodecane/1-octanol".
Once said solution was obtained, its equilibration was carried out. To that end, 800 µL of the organic solution of the compound to be studied were contacted with 800 µL of nitric acid of 3 mol/L concentration and it was stirred vigorously in an oscillating shaker for 5 minutes. The phases were separated by centrifugation at 5000 rpm. 800 µL of the said organic phase were again contacted with 800 µL of nitric acid of 3 mol/L concentration for another 5 minutes of vigorous shaking. The phases were separated by centrifugation, the organic phase being considered to be equilibrated.
600 µL of the organic phase of the compound to be studied, previously equilibrated, were contacted with 600 µL of aqueous phase consisting of a 3 mol/L nitric acid solution spiked with 600 Bq of ^152Eu and 600 Bq of ^241Am. It was stirred vigorously by means of an oscillating shaker for 30 minutes and the phases were separated by centrifugation at 5000 rpm. 400 µL were taken from each of the phases for determining the concentration of the radionuclides ^152Eu and ^241Am. This determination was carried out by means of the high energy gamma spectrometry technique with a high-purity Ge detector (Canberra Inc.), using the 122 keV line for the determination of ^152Eu concentration and the 59.5 keV line for the determination of ^241Am concentration. The distribution coefficient was calculated by relating the concentration of each of the radionuclides in the organic phase and in the aqueous phase, according to the expression: DM = ([M]org)/([M]aq) [formula]
The distribution coefficients and the selectivity factor of each of them were determined as indicated in sections A) to C).

[2] = Batch extraction from simulated HLLW from the PUREX process, gamma spectrometry; details: 0.1 mol/L in TPH/1-octanol (90:10)
From the text: The feed solution used for the extraction tests is a simulated solution of an HLLW from the PUREX process, the composition of which is shown in Table 4. Table 4: Composition of the simulated HLLW-PUREX solution used for the extraction tests
The composition of the HLLW corresponds to a burn-up of 33 GWd/tHM, the generated volume of HLLW being 5000 1/t of fuel. The feed was spiked with ^241Am, ^244Cm, ^252Cf and ^152Eu. Oxalic acid and N-(2-hydroxyethyl)ethylenediaminotriacetate (HEDTA) were also added before the extraction tests.
500 µL of the aqueous and organic phases were spiked with 10 µL of a tracer solution containing 241Am, 244Cm, 252Cf and ^152Eu, and were equilibrated for 10 minutes while they were stirred vigorously in a vortex stirrer. After the separation of the phases by centrifugation, 200 µL aliquots of each phase were taken for the determination of the concentration of ^241Am and ^152Eu using a high-purity germanium spectrometer system (EG&G Ortec). The nuclides ^241Am, ^244Cm and ^252Cf were measured by alpha spectrometry with an α-Analyst device of the company Canberra-Packard GmbH, Germany.
The concentrations of the stable elements were determined by mass spectrometry with an inductively coupled plasma source (ICP-MS) in a DRC Elan 6100 device of Perkin Elmer Sciex. The aqueous phase was measured directly after the appropriate dilution. The organic phase was analyzed after having mineralized the organic matter by microwave acid digestion and subsequent dilution.
The distribution coefficients were calculated for each element according to section C).
A 0.1 mol/L solution of compound 4 in the "TPH/1-octanol (90:10)%vol" mixture was prepared. Extraction experiments were carried out with said simulated HLLW in a pure form and also adding oxalic acid and HEDTA to it. These complexing agents have shown to be effective in the DIAMEX process for the complexing of Mo, Zr (H2C2O4) and Pd (HEDTA).
Extraction experiments were carried out with said simulated HLLW in a pure form and also adding oxalic acid and HEDTA to it.

[3] = Loading capacity (limiting organic concentration); details: 0.2 mol/L in TPH/1-octanol (95:5)%vol; 3 mol/L nitric acid
Description: The organic solutions were prepared and equilibrated with 3 mol/L nitric acid as detailed in the previously described sections A) and B.
Aqueous solutions of 3 mol/L nitric acid, spiked with 600 Bq of ^152Eu and 600 Bq of ^241Am, containing different amounts of stable Eu(III) (0.004 mol/L, 0.008 mol/L, 0.016 mol/L, 0.032 mol/L, 0.064 mol/L and 0.128 mol/L), obtained dissolving the corresponding amount of Eu (NO3)3·6H2O salt in 3 mol/L nitric acid, were prepared.
600 µL of equilibrated organic phase were contacted with 600 µL of aqueous phase of the corresponding concentration of Eu(III). It was stirred vigorously by means of an oscillating shaker for 15 minutes. The phases were separated by centrifugation at 5000 rpm and 400 µL of each of the phases were taken for the determination of the concentration of ^152Eu and ^241Am, as described previously in section C).
The loading capacity was determined according to the limiting organic concentration or LOC, which is the highest concentration of metal admitted by the organic phase before the third phase appears, as a result of the organic phase separating into two phases: a light or less heavy phase formed mainly by the organic solvent and a heavy phase formed by the complex formed by the extractant and the metal. […]

[4] = Oxalic acid 0.2 mol/L, HEDTA 0.05 mol/L, TBP 0.5 mol/L
[5] = Oxalic acid 0.2 mol/L, HEDTA 0.05 mol/L, TBP No
[6] = Oxalic acid 0.3 mol/L, HEDTA 0.05 mol/L, TBP 0.5 mol/L
[7] = Oxalic acid 0.3 mol/L, HEDTA 0.05 mol/L, TBP No
[8] = Oxalic acid No, HEDTA No, TBP 0.5 mol/L
[9] = Oxalic acid No, HEDTA No, TBP No

Substance: 2-Dioctylcarbamoylmethoxy-N-[3-[3-(2-dioctylcarbamoyl-methoxyacetylamino)propoxy]propyl]acetamide [Compound 18]
- DAm [1]: 29
- DEu [1]: 177
- Distribution coefficients Am-241, γ [2, 4]: 70
- Distribution coefficients Am-241, γ [2, 5]: 100
- Distribution coefficients Am-241, γ [2, 6]: 61
- Distribution coefficients Am-241, γ [2, 7]: 97
- Distribution coefficients Am-241, γ [2, 8]: 65
- Distribution coefficients Am-241, γ [2, 9]: 96
- LOCEu [3]: ~ 0.06 mol/L

Substance: 2-Dioctylcarbamoylmethoxy-N-[3-[(2-dioctylcarbamoyl-methoxy-acetylamino)methyl]benzyl]acetamide [Compound 4]
- DAm [1]: 33
- DEu [1]: 141
- Distribution coefficients Am-241, γ [2, 4]: 63
- Distribution coefficients Am-241, γ [2, 5]: 131
- Distribution coefficients Am-241, γ [2, 6]: 82
- Distribution coefficients Am-241, γ [2, 7]: 141
- Distribution coefficients Am-241, γ [2, 8]: 70
- Distribution coefficients Am-241, γ [2, 9]: 99
- LOCEu [3]: ~ 0.03 mol/L
